From US11952384B2, “Anti-tumor compound and preparation method and use thereof” (DUALITY BIOLOGICS (SUZHOU) CO., LTD., priority 2020, dated 2024) come the findings set out here.

Series [1] addresses T1, BCRP (Homo sapiens, UniProt Q9UNQ0).
T1 sequence (Q9UNQ0 1-655): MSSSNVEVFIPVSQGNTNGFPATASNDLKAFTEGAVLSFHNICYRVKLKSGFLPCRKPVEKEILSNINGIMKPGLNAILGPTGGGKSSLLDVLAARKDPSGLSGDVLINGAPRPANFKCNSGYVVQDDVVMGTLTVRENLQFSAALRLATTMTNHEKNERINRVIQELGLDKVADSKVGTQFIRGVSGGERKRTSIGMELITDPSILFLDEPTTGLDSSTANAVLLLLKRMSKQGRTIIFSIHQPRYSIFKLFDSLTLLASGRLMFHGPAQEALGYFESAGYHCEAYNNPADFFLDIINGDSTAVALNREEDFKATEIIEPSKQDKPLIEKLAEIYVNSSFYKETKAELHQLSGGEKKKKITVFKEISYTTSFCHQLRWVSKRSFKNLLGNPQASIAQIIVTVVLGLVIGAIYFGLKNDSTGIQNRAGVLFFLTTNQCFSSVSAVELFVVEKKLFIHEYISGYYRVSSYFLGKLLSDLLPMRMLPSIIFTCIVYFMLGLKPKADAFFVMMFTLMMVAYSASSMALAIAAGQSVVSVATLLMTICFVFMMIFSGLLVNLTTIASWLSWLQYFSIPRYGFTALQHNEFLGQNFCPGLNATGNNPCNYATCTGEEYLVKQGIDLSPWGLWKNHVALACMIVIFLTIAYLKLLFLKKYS
The experiment in a line: Study on transporter substrates in Caco-2 cell model. The following applies: Caco-2; for efflux ratio at 2 h / recovery at 2 h: human; for efflux ratio at 2 h: Caco-2, Efflux ratio. Background: Caco-2 monolayers are a common model of the intestinal barrier.
Procedure: (§1) To investigate whether the compounds of the present invention is a substrate for efflux transporters P-gp and BCRP in a Caco-2 cell model, thereby providing preclinical basis for analyzing the drug-drug interaction in pharmacokinetics.
(§2) • 1) Cell culture medium was added to each well of the Transwell. The HTS Transwell plate was incubated under conditions of 37° C. and 5% CO2 for 1 h prior to cell inoculation. • 2) Caco-2 cells were diluted with culture medium and the cell suspension was dispensed into filter wells of the 96-well HTS Transwell plate. […] The cell culture medium was changed periodically. • 3) Monolayer cell resistance was measured using the Millicell Epithelial Volt-Ohm detection system. The resistance of each well was recorded. After all wells were measured, the Transwell plate was put back into the incubator. TEER of each well was calculated according to the formula. The TEER value of each well should be greater than 230 ohm·cm^2. […] Preparation for Transporter Test • 1) The Caco-2 plate was taken out from the incubator. The monolayer cells were washed with pre-heated HBSS twice. The plate was then incubated at 37° C. for 30 min. • 2) Stock solutions of the compounds were prepared in DMSO and diluted with HBSS to obtain working solutions. Digoxin was used as a reference substrate for P-gp and rosuvastatin was used as a reference substrate for BCRP. Propranolol was used as a high permeability marker. • 3) The working solution (without inhibitor) was added to the Transwell insert (apical compartment) to determine the rate of drug transport in the apical to basolateral direction. The transfer buffer was added to the wells in the receiver plate (basolateral compartment). The working solution (without inhibitor) was added to the receiver plate wells (basolateral compartment) to determine the rate of drug transport in the basolateral to apical direction. The Transwell insert (apical compartment) was filled with the transport buffer. PSC833 was added to the apical and basolateral compartments to determine the rate of drug transport in the presence of P-gp inhibitors. • 4) The sample was transferred from the working solution to the quenching solution, and a sample with a time of 0 was prepared. The Transwell plate was incubated under conditions of 37° C. and 5% CO2 for 2 h. • 5) At the end of the transport cycle, the samples were transferred from the apical and basolateral wells into a new 96-well plate. Cold acetonitrile or methanol containing the appropriate internal standard (IS) was added to each well of the plate. The plate was vortexed for 10 min. The samples were centrifuged. The supernatant of an aliquot was mixed with an appropriate amount of ultrapure water (depending on the LC-MS/MS signal response and peak shape) prior to the LC-MS/MS analysis. • 6) The stock solution of lucifer yellow in DMSO was prepared and diluted with HBSS to determine the amount of lucifer yellow leakage after a 2-hour transport period. The lucifer yellow solution was added to the apical compartment. HBSS was added to the basolateral compartment. The plate was incubated at 37° C. for 30 min, and a certain amount of the solution was directly taken from the apical and basolateral wells and transferred to a new 96-well plate. The lucifer yellow fluorescence was measured in a fluorescence plate reader with 485 nm excitation and 530 nm emission (to monitor monolayer integrity).
(§3) Data were calculated using Microsoft Excel. The percentage of the compound remaining at each time point was estimated by determining the peak area ratio from the extracted ion chromatogram.
(§4) For drug transport analysis in the Caco-2 cell model, the apparent permeability coefficient (Papp) can be calculated according to the following formula, in cm/s:
(§5) [formula] • wherein the concentration C is in nM, the volume V is in μL, the time T is in s, and the area S is in cm^2.
(§6) The recovery rate is calculated according to the following formula:

In series [2] the target is T1, BCRP. To be noted: Caco-2.
Procedure: as §1, §2, §3, §4, §5, §6
In series [3] the target is T2, P-gp (Homo sapiens, UniProt P08183).
T2 construct: endogenous in cells; host or cells: Caco-2
The experiment in a line: Study on transporter substrates in Caco-2 cell model. The series is classed as in vitro ADME. The following applies: Caco-2. The protocol: The resistance of each well was recorded. […] 2. […] The plate was vortexed for 10 min. The samples were centrifuged. […] HBSS was added to the basolateral compartment. […] 3. Data Analysis
Data were calculated using Microsoft Excel.

For series [4], the target named is T1, BCRP. The experiment in a line: in vitro. To be noted: for Papp A→B at 2 h: Caco-2, Papp (A-B) (10^−6, cm/s); for Papp B→A at 2 h: Caco-2, Papp (B-A) (10^−6, cm/s).
Procedure: as §1, §2, §3, §4, §5, §6
Series [5] has as its system Colo205 cells. The experiment in a line: Inhibition of in vitro proliferation of tumor cells by compounds (CTG, 6 days). To be noted: Homo sapiens, COLO 205, 144 h, Table 4, Test Example 2.4, small molecule fragments, 6 days of culture. Format: cell-based. How it is done:
To test the inhibitory activity of the pharmaceutical compounds on the in vitro proliferation of NCI-N87 and Colo205 tumor cells. The cells were treated with compounds at different concentrations in vitro, and after 6 days of culture, the proliferation of cells was detected using CTG (CellTiter-Glo® Luminescent Cell Viability Assay, Promega, Cat. No. G7558) reagents, and the in vitro activity of the compounds was evaluated according to the IC50 value. • 1. Culturing of cells: NCI-N87/Colo205 cells were cultured in RPMI-1640 medium containing 10% FBS. • 2. Preparation of cells: NCI-N87/Colo205 cells in logarithmic phase were taken, washed with PBS once, and digested with 2-3 mL of trypsin for 2-3 min. After the cells were digested completely, 10-15 mL of cell culture was added to elute the digested cells. The eluate was centrifuged at 1000 rpm for 5 min, and the supernatant was discarded. […] Sample adding: the prepared samples to be detected at different concentrations were added to the culture plate, and two duplicate wells were set for each sample. […] Plate reading: the 96-well cell culture plate was taken out, placed in a microplate reader, and measured for the chemiluminescence using the microplate reader. Data analysis: data were processed and analyzed using Microsoft Excel and Graphpad Prism 5.

Where [6] appears, read: Caco-2, Recovery rate (%) BL-AP, KO143 −.
[7] abbreviates: Caco-2, with KO143 (concentration not stated), Recovery rate (%) AP-BL, KO143 +.
The mark [8] stands for this setting: Caco-2, with KO143 (concentration not stated), Recovery rate (%) BL-AP, KO143 +.
[9] abbreviates: Caco-2, Recovery rate (%) AP-BL, KO143 −.

T2 sequence (P08183 whole entry): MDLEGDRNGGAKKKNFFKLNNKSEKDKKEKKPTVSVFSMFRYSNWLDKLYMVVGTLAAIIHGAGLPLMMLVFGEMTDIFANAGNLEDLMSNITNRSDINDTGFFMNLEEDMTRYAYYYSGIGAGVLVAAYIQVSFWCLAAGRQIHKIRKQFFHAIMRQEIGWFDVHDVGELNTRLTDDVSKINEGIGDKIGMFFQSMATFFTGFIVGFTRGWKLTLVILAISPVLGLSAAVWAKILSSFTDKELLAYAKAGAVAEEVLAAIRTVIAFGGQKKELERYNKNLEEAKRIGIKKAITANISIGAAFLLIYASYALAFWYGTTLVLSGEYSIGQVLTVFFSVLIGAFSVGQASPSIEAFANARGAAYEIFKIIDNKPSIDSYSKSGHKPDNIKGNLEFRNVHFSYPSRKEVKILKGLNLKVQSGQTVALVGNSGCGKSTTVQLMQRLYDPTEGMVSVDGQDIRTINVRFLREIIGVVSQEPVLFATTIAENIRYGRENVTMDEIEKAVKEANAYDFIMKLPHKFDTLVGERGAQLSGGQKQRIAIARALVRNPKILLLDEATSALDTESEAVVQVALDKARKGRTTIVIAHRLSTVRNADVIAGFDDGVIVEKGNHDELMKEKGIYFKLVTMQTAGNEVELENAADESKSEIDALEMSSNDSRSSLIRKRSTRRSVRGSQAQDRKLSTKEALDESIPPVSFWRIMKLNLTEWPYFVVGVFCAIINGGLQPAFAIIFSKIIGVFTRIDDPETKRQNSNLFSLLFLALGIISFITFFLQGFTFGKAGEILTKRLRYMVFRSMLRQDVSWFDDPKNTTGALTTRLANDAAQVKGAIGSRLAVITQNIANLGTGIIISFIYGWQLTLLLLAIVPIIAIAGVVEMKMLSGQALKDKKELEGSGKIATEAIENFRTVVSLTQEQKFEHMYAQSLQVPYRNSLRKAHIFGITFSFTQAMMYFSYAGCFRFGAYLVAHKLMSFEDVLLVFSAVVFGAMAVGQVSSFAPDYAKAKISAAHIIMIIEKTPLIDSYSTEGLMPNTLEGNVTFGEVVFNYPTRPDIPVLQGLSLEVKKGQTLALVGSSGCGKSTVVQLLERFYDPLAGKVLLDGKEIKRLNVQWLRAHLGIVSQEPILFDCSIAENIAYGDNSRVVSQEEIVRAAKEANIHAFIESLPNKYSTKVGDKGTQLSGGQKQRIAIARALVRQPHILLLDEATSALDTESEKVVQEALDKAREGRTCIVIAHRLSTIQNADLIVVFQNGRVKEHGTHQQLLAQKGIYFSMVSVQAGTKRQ

As usually defined, the efflux ratio is the permeability from basolateral to apical divided by that in the opposite direction, in the common usage. In the case of `CC[C@@]1(O)C(=O)OCc2c1cc1n(c2=O)Cc2c-1nc1cc(F)c(C)c3c1c2[C@@H](NC(=O)C1CCC(O)CC1)CC3` (single isomer, unassigned) [P-II-1], the “Recovery rate (%) AP-BL” value in series [1] (KO143 −) was found to be 80.87%. Moreover, the efflux ratio at 2 h in series [1] (KO143 −) worked out at 28.7. Moreover, the recovery at 2 h stood at 77.5% in series [1] (setting [6]), 76.9% in series [1] (setting [7]) and 76.5% in series [1] (setting [8]). Also, in series [2], the “Papp (A-B) (10^−6, cm/s)” value is 0.20 10^−6, cm/s. The “Papp (B-A) (10^−6, cm/s)” value in series [2] was 5.52 10^−6, cm/s. In addition, the P-gp substrate entry in series [3] was “neither transporter P-gp substrates nor transporter BCRP substrates”.

Consider `CC[C@@]1(O)C(=O)OCc2c1cc1n(c2=O)Cc2c-1nc1cc(F)c(C)c3c1c2[C@@H](NC(=O)C1CCC(O)CC1)CC3` (single isomer, unassigned) [P-II-2], for which, in series [1] (KO143 +), the “Recovery rate (%) AP-BL” value came out at 62.42% and the “Recovery rate (%) BL-AP” value is 62.86%. Moreover, in series [1] (KO143 −), the Efflux ratio is 30.08, the “Recovery rate (%) AP-BL” value was determined as 59.32% and the “Recovery rate (%) BL-AP” value is given as 58.51%. Also, in series [2], the “Papp (A-B) (10^−6, cm/s)” value is reported as 0.07 10^−6, cm/s and the “Papp (B-A) (10^−6, cm/s)” value is given as 1.70 10^−6, cm/s. The P-gp substrate entry in series [3] was “neither transporter P-gp substrates nor transporter BCRP substrates”.

Broadly, the Papp A→B is how fast a substance crosses the layer from the apical side. A low value points to slow passage. In general, Papp B→A refers to how fast a substance crosses the layer from the basolateral side. As for `CC[C@@]1(O)C(=O)OCc2c1cc1n(c2=O)Cc2c-1nc1cc(F)c(C)c3c1c2[C@@H](NC(=O)[C@H]1C[C@@H](O)C1)CC3` [P-II-3, (1s,3R)-N-((1S,9S)-9-ethyl-5-fluoro-9-hydroxy-4-methyl-10,13-dioxo-2,3,9,10,13,15-hexahydro-1H,12H-benzo[de]pyrano[3′,4′:6,7]indolizino[1,2-b]quinolin-1-yl)-3-hydroxycyclobutane-1-carboxamide], the efflux ratio at 2 h in series [1] (KO143 −) worked out at 28.7. In addition, the recovery at 2 h in series [1] (setting [9]) turned out to be 80.9%; in series [1] (setting [6]) it was 77.5%; in series [1] (setting [7]), 76.9%; in series [1] (setting [8]), 76.5%. For the same molecule, the “Papp (A-B) (10^−6, cm/s)” value in series [2] was 0.20 10^−6, cm/s. Moreover, the “Papp (B-A) (10^−6, cm/s)” value in series [2] is recorded as 5.52 10^−6, cm/s. The P-gp substrate result in series [3] is “neither transporter P-gp substrates nor transporter BCRP substrates”. The molecule also came in with a Papp A→B at 2 h in series [4] of 0.17 ×10⁻⁶ cm/s. The molecule further yielded a Papp B→A at 2 h in series [4] of 4.83 ×10⁻⁶ cm/s.

For the molecule `CC[C@@]1(O)C(=O)OCc2c1cc1n(c2=O)Cc2c-1nc1cc(F)c(C)c3c1c2[C@@H](NC(=O)[C@H]1C[C@H](O)C1)CC3` [P-II-4, (1r,3S)-N-((1S,9S)-9-ethyl-5-fluoro-9-hydroxy-4-methyl-10,13-dioxo-2,3,9,10,13,15-hexahydro-1H,12H-benzo[de]pyrano[3′,4′:6,7]indolizino[1,2-b]quinolin-1-yl)-3-hydroxycyclobutane-1-carboxamide], in series [1] (KO143 −), the efflux ratio at 2 h was determined as 36.1. Besides, the recovery at 2 h in series [1] (setting [9]) was 63.8%; in series [1] (setting [6]), 64%; in series [1] (setting [7]) it was 65%; in series [1] (setting [8]), 63%. Also, the “Papp (A-B) (10^−6, cm/s)” value in series [2] is 0.06 10^−6, cm/s. The “Papp (B-A) (10^−6, cm/s)” value in series [2] is listed as 1.65 10^−6, cm/s. Moreover, the P-gp substrate result in series [3] was “neither transporter P-gp substrates nor transporter BCRP substrates”. Also, in series [4], the Papp A→B at 2 h turned out to be 0.05 ×10⁻⁶ cm/s. In series [4], the Papp B→A at 2 h worked out at 1.72 ×10⁻⁶ cm/s.

What is called IC50 is the concentration needed to halve the response being measured. High values mean weaker potency, low ones greater potency. The molecule `CC[C@@]1(O)C(=O)OCc2c1cc1n(c2=O)Cc2c-1nc1cc(F)c(C)c3c1c2[C@@H](NC(=O)C[C@@H](C)O)CC3` [P-III-20, (R)—N-((1S,9S)-9-ethyl-5-fluoro-9-hydroxy-4-methyl-10,13-dioxo-2,3,9,10,13,15-hexahydro-1H,12H-benzo[de]pyrano[3′,4′: 6,7]indolizino[1,2-b]quinolin-1-yl)-3-hydroxybutanamide] yielded a half-inhibitory concentration (IC50) in series [5] of 0.02 µM.
